Results as given in ChEMBL document CHEMBL1201862, “PubChem BioAssay data set” (2004).
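Growth conditions: 96-well plates. Treatment: test compound, 48 hours, 5 concentrations. Analysis: linear interpolation between bracketing concentrations; unreached endpoints set to highest concentration. The concentration for 50% growth inhibition is given as GI50.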 Active and inactive are the calls of the source. Rule as the data show it: active = GI50 up to about 1.1 µM and inactive = higher. Peptide text beside a SMILES is read from it. * marks the point of attachment. Boc = CC(C)(C)OC(=O)*

Assays:
Assay in all cases: DTP human tumour cell line panel, 48 h
Malme-3M = test system: Malme-3M
OVCAR-4 = test system: OVCAR-4
RPMI-8226 = test system: RPMI-8226
EKVX = test system: EKVX
SF-539 = test system: SF-539
T47D = test system: T47D
SF-268 = test system: SF-268
CAKI-1 = test system: CAKI-1
SR = test system: SR
RXF 393 = test system: RXF 393
SF-295 = test system: SF-295
MOLT-4 = test system: MOLT-4
786-0 = test system: 786-0
COLO 205 = test system: COLO 205
BT-549 = test system: BT-549
ACHN = test system: ACHN
KM12 = test system: KM12
SNB-75 = test system: SNB-75
NCI-H226 = test system: NCI-H226

Structure (SMILES)	GI50 (Malme-3M)	GI50 (OVCAR-4)	GI50 (RPMI-8226)	GI50 (EKVX)	GI50 (SF-539)	GI50 (T47D)	GI50 (SF-268)	GI50 (CAKI-1)	GI50 (SR)	GI50 (RXF 393)	GI50 (SF-295)	GI50 (MOLT-4)	GI50 (786-0)	GI50 (COLO 205)	GI50 (BT-549)	GI50 (ACHN)	GI50 (KM12)	GI50 (SNB-75)	GI50 (NCI-H226)
COC(=O)c1c(C)[n+]([O-])c2cc(Cl)c(Cl)cc2[n+]1[O-]	8.45 µM (inactive)	19 µM (inactive)	4.17 µM (inactive)	19.5 µM (inactive)	18.9 µM (inactive)	15.8 µM (inactive)	23.4 µM (inactive)	20.7 µM (inactive)	6.17 µM (inactive)	32.9 µM (inactive)	19.6 µM (inactive)	12.6 µM (inactive)	27.2 µM (inactive)	12.2 µM (inactive)	22.6 µM (inactive)	15.8 µM (inactive)	11.2 µM (inactive)		
COc1ccc2nc(-c3ccccc3)cc(OCC(=O)O)c2c1	> 100 µM (inactive)		> 100 µM (inactive)	> 100 µM (inactive)	> 100 µM (inactive)	> 100 µM (inactive)	> 100 µM (inactive)	> 100 µM (inactive)	> 100 µM (inactive)		> 100 µM (inactive)	> 100 µM (inactive)	> 100 µM (inactive)	> 100 µM (inactive)	> 100 µM (inactive)	> 100 µM (inactive)	> 100 µM (inactive)	> 100 µM (inactive)	> 100 µM (inactive)
O=C(Nc1ccccc1)Nn1c(-c2cccs2)nc2ccc(I)cc2c1=O		16.9 µM (inactive)	19.1 µM (inactive)	20.9 µM (inactive)	33.7 µM (inactive)	3.33 µM (inactive)	30.4 µM (inactive)	23.8 µM (inactive)	16.8 µM (inactive)	30.4 µM (inactive)	42.6 µM (inactive)		61.7 µM (inactive)	21.4 µM (inactive)	10.5 µM (inactive)	27.5 µM (inactive)	31.3 µM (inactive)	2.74 µM (inactive)	28.8 µM (inactive)
COC(=O)NC(Cc1ccccc1)NC(C)=O (configuration not stated)	> 100 µM (inactive)	> 100 µM (inactive)	> 100 µM (inactive)	> 100 µM (inactive)	> 100 µM (inactive)	> 100 µM (inactive)	> 100 µM (inactive)	> 100 µM (inactive)	> 100 µM (inactive)	> 100 µM (inactive)	> 100 µM (inactive)	> 100 µM (inactive)	> 100 µM (inactive)	> 100 µM (inactive)	> 100 µM (inactive)	> 100 µM (inactive)	> 100 µM (inactive)	> 100 µM (inactive)	
COc1cc(C2OC(N)=C(C#N)C3=C2C(C)CCC3)cc(OC)c1OC (configuration not stated)	39.9 µM (inactive)		> 100 µM (inactive)	37.2 µM (inactive)	11.9 µM (inactive)	2.03 µM (inactive)	> 100 µM (inactive)	> 100 µM (inactive)	0.136 µM (active)	21.9 µM (inactive)	28.9 µM (inactive)	34.2 µM (inactive)	42.6 µM (inactive)	> 100 µM (inactive)	> 100 µM (inactive)	97.9 µM (inactive)	> 100 µM (inactive)	10.9 µM (inactive)	68.7 µM (inactive)
CCOP(=O)(OCC)C(NC(=O)C(C(F)(F)F)C(F)(F)F)c1ccccc1 (configuration not stated)	> 100 µM (inactive)	> 100 µM (inactive)	21.7 µM (inactive)	> 100 µM (inactive)	> 100 µM (inactive)	84.1 µM (inactive)	> 100 µM (inactive)	> 100 µM (inactive)	59.6 µM (inactive)	> 100 µM (inactive)	> 100 µM (inactive)	67.3 µM (inactive)	> 100 µM (inactive)	> 100 µM (inactive)	> 10 µM (inactive)	> 100 µM (inactive)	> 100 µM (inactive)	> 100 µM (inactive)	
CC(=O)Nc1nc(C)c(S(=O)(=O)NC(=O)N2c3ccccc3CCc3ccccc32)s1	> 100 µM (inactive)	> 100 µM (inactive)	> 100 µM (inactive)	> 100 µM (inactive)	> 100 µM (inactive)	> 100 µM (inactive)	> 100 µM (inactive)	> 100 µM (inactive)	> 100 µM (inactive)	> 100 µM (inactive)	> 100 µM (inactive)	89.5 µM (inactive)	> 100 µM (inactive)	> 100 µM (inactive)	> 100 µM (inactive)	> 100 µM (inactive)	> 100 µM (inactive)	> 100 µM (inactive)	
COc1ccc(N2C(=O)C3c4[nH]c5cc(Cl)ccc5c4C4CCC(C(C)(C)C)CC4C3C2=O)cc1 (configuration not stated)		94.4 µM (inactive)	53.2 µM (inactive)	59.2 µM (inactive)	96.8 µM (inactive)	66.4 µM (inactive)	> 100 µM (inactive)		12.6 µM (inactive)	> 100 µM (inactive)	> 100 µM (inactive)	15.6 µM (inactive)	> 100 µM (inactive)	> 100 µM (inactive)	> 100 µM (inactive)	61.1 µM (inactive)	65.8 µM (inactive)	> 100 µM (inactive)	> 100 µM (inactive)
CC(Cl)CC(=O)OCC1CCCN2CCCCC12 (configuration not stated)	> 100 µM (inactive)	> 100 µM (inactive)	> 100 µM (inactive)	> 100 µM (inactive)	> 100 µM (inactive)	> 100 µM (inactive)	> 100 µM (inactive)	> 100 µM (inactive)		> 100 µM (inactive)	> 100 µM (inactive)	> 100 µM (inactive)	> 100 µM (inactive)	> 100 µM (inactive)	> 100 µM (inactive)	> 100 µM (inactive)	> 100 µM (inactive)	> 100 µM (inactive)	> 100 µM (inactive)
CCOC(=O)n1c2ccccc2c(=O)n1CCO	> 100 µM (inactive)	> 100 µM (inactive)		> 100 µM (inactive)	> 100 µM (inactive)	7.45 µM (inactive)	> 100 µM (inactive)	> 100 µM (inactive)	> 100 µM (inactive)	24.2 µM (inactive)	> 100 µM (inactive)	> 100 µM (inactive)	> 100 µM (inactive)	> 100 µM (inactive)	> 100 µM (inactive)	> 100 µM (inactive)	> 100 µM (inactive)	28.8 µM (inactive)	> 100 µM (inactive)
C#CCCCC(=O)N(C(=O)C[S+]([O-])CC)c1ccccc1 (configuration not stated)	> 100 µM (inactive)	> 100 µM (inactive)		> 100 µM (inactive)	> 100 µM (inactive)	> 100 µM (inactive)	> 100 µM (inactive)	> 100 µM (inactive)	> 100 µM (inactive)	> 100 µM (inactive)	> 100 µM (inactive)	> 100 µM (inactive)	> 100 µM (inactive)	> 100 µM (inactive)	> 100 µM (inactive)	> 100 µM (inactive)	> 100 µM (inactive)	> 100 µM (inactive)	> 100 µM (inactive)
COC(=O)C1=Nc2c(C)nn(-c3ccccc3)c2N=C(c2ccc([N+](=O)[O-])cc2)C1	> 10 µM (inactive)	> 10 µM (inactive)	> 10 µM (inactive)		> 10 µM (inactive)	> 10 µM (inactive)	> 10 µM (inactive)	> 10 µM (inactive)	> 10 µM (inactive)		> 10 µM (inactive)	> 10 µM (inactive)	> 10 µM (inactive)	> 10 µM (inactive)	> 10 µM (inactive)	> 10 µM (inactive)	> 10 µM (inactive)	> 10 µM (inactive)	
Cc1c(/N=N/c2ccc(Cl)cc2)c(-c2ccccc2)n(C2OC(CO)C(O)C(O)C2O)c(=S)c1C#N (configuration not stated)	25.5 µM (inactive)	17.2 µM (inactive)	25.2 µM (inactive)		20.7 µM (inactive)	19.1 µM (inactive)	22.2 µM (inactive)	18.1 µM (inactive)	20.6 µM (inactive)	15 µM (inactive)	24.9 µM (inactive)	8.04 µM (inactive)	20.2 µM (inactive)	21.2 µM (inactive)	16 µM (inactive)	16 µM (inactive)	16.8 µM (inactive)	18.7 µM (inactive)	
CCc1n[nH]c(=O)[nH]1	> 100 µM (inactive)			> 100 µM (inactive)	> 100 µM (inactive)	> 100 µM (inactive)	> 100 µM (inactive)	> 100 µM (inactive)	> 100 µM (inactive)	> 100 µM (inactive)	> 100 µM (inactive)	> 100 µM (inactive)	> 100 µM (inactive)	> 100 µM (inactive)	> 100 µM (inactive)	> 100 µM (inactive)	> 100 µM (inactive)	> 100 µM (inactive)	
C#CCN(Cc1ccc2[nH]c(N)nc(=O)c2c1)c1ccc(C(=O)NC(CCC(=O)O)C(=O)O)cc1 (configuration not stated)	47.5 µM (inactive)		7.46 µM (inactive)	> 100 µM (inactive)	0.506 µM (active)	9.35 µM (inactive)	17.5 µM (inactive)	5.3 µM (inactive)	> 100 µM (inactive)		34 µM (inactive)	5.4 µM (inactive)	6.38 µM (inactive)	12 µM (inactive)	8.11 µM (inactive)	3.82 µM (inactive)	> 100 µM (inactive)		> 100 µM (inactive)
COC(=O)C(Cc1c[nH]c2ccccc12)NC(=O)C(Cc1c[nH]c2ccccc12)NC(=O)C(Cc1c[nH]c2ccccc12)NC(=O)C(Cc1c[nH]c2ccccc12)NC(=O)C(Cc1c[nH]c2ccccc12)NC(=O)OC(C)(C)C (configuration not stated) (Boc-WWWWW-OMe; configuration not given here)	94.2 µM (inactive)	> 100 µM (inactive)	26.2 µM (inactive)			10.7 µM (inactive)	71 µM (inactive)	> 100 µM (inactive)	32.4 µM (inactive)			19.6 µM (inactive)	60 µM (inactive)		91.8 µM (inactive)	74 µM (inactive)		36.5 µM (inactive)	42 µM (inactive)
